The results in this text go back to patent US8669249B2, “Poly (ADP-ribose) polymerase (PARP) inhibitors” (Takeda Pharmaceutical Company Limited, priority 2009, dated 2014).

The assay has as its target T1, catalytic domain of Human PARP (Homo sapiens, UniProt P09874).
T1 construct: The catalytic domain of Human PARP was cloned and prepared; made in house
Kind of assay: Biacore surface plasmon resonance affinity assay. The assay is classed as binding. To be noted: pKD=-log10 KD, KD in mol/L; Biacore T100, 25° C.; read-out: pKD (converted). An outline of the steps: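 Binding at 25° C on Biacore T100: 1 min compound association then 5 min dissociation (50 μL/min) over immobilized PARP catalytic domain, buffer HBS-P plus 1% DMSO, 0.5 mM TCEP, 5 mM MgCl2, 2-fold dilution series. KD derived as koff/kon from fitted association and dissociation phases.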
Background: SPR reads the build-up and loss of mass on a sensor chip optically.

T1 sequence (P09874 788-1014 limits assumed): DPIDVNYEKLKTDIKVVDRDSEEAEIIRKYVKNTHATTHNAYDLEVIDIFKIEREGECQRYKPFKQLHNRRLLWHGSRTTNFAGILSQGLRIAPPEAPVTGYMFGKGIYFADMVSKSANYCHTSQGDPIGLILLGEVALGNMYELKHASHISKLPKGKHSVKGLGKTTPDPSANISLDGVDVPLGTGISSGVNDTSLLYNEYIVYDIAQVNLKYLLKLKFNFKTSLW

As for `CC1Oc2ccc(CN3CCC(CCO)CC3)cc2NC1=O` (centres unmarked) [Compound 87, 6-((4-(2-Hydroxyethyl)piperidin-1-yl)methyl)-2-methyl-2H-benzo[b][1,4]oxazin-3(4H)-one], the Kd is 1.26 to 10 µM.
Consider `O=C1COc2ccc(S(=O)(=O)N3CCCC3)cc2N1` [Compound 117, 6-(Pyrrolidin-1-ylsulfonyl)-2H-benzo[b][1,4]oxazin-3(4H)-one], for which the Kd was 1.26 to 10 µM.
Under `O=C1COc2ccc(C(=O)CN3CCOCC3)cc2N1` [Compound 112, 6-(2-morpholinoacetyl)-2H-benzo[b][1,4]oxazin-3(4H)-one] stands no less than 100 µM; under `CC1Oc2ccc(S(=O)(=O)N3CCCC3)cc2NC1=O` (centres unmarked) [Compound 120, 2-Methyl-6-(pyrrolidin-1-ylsulfonyl)-2H-benzo[b][1,4]oxazin-3(4H)-one], no less than 100 µM.
The value for `CC1Oc2ccc(CN(C)CC(=O)O)cc2NC1=O` (centres unmarked) [Compound 132, 2-(Methyl((2-methyl-3-oxo-3,4-dihydro-2H-benzo[b][1,4]oxazin-6-yl)methyl)amino)acetic acid] was 1.26 to 10 µM; that for `CC1Oc2ccc(-c3cccc(C(=O)O)c3)cc2NC1=O` (centres unmarked) [Compound 141, 3-(2-methyl-3-oxo-3,4-dihydro-2H-benzo[b][1,4]oxazin-6-yl)benzoic acid] was 1.26 to 10 µM; that for `CC1Oc2ccc(CN3CCN(C)C(=O)C3)cc2NC1=O` (centres unmarked) [Compound 79, 2-Methyl-6-((4-methyl-3-oxopiperazin-1-yl)methyl)-2H-benzo[b][1,4]oxazin-3(4H)-one] was greater than 10 µM.
Under `CCC1Oc2ccc(CN3CCC(c4nc5ccccc5[nH]4)CC3)cc2NC1=O` (centres unmarked) [Compound 196, 6-((4-(1H-Benzo[d]imidazol-2-yl)piperidin-1-yl)methyl)-2-ethyl-2H-benzo[b][1,4]oxazin-3(4H)-one] stands no less than 100 µM.
For the compound `CC1Oc2ccc(CN3CCC(N(C)C)CC3)cc2NC1=O` (centres unmarked) [Compound 45, 6-((4-(Dimethylamino)piperidin-1-yl)methyl)-2-methyl-2H-benzo[b][1,4]oxazin-3(4H)-one], the Kd was 0.0126 to 0.1 µM.
In the case of `CC1Oc2ccc(CN3Cc4ccc(F)cc4C3)cc2NC1=O` (centres unmarked) [Compound 241, 6-((5-Fluoroisoindolin-2-yl)methyl)-2-methyl-2H-benzo[b][1,4]oxazin-3(4H)-one], the Kd is no more than 0.01 µM.
Under `CC1Oc2ccc(CN3CCc4ccccc4C3)cc2NC1=O` (centres unmarked) [Compound 76, 6-((3,4-Dihydroisoquinolin-2(1H)-yl)methyl)-2-methyl-2H-benzo[b][1,4]oxazin-3(4H)-one] stands 0.126 to 1 µM; under `CC1Oc2ccc(-c3ccc(C(=O)N4CCN(C)CC4)cc3)cc2NC1=O` (centres unmarked) [Compound 154, 2-Methyl-6-(4-(4-methylpiperazine-1-carbonyl)phenyl)-2H-benzo[b][1,4]oxazin-3(4H)-one], greater than 10 µM; under `CC1Oc2ccc(CN3CCN(c4ccccc4)CC3)cc2NC1=O` (centres unmarked) [Compound 33, 2-Methyl-6-((4-phenylpiperazin-1-yl)methyl)-2H-benzo[b][1,4]oxazin-3(4H)-one], 0.126 to 1 µM.
`CC1Oc2ccc(CN3CCCc4cc(O)ccc43)cc2NC1=O` (centres unmarked) [Compound 84, 6-((6-Hydroxy-3,4-dihydroquinolin-1(2H)-yl)methyl)-2-methyl-2H-benzo[b][1,4]oxazin-3(4H)-one]: the Kd is greater than 10 µM.
Under `CC1Oc2ccc(CN(C)CC(=O)NCC3CCCCC3)cc2NC1=O` (centres unmarked) [Compound 140, N-(Cyclohexylmethyl)-2-(methyl((2-methyl-3-oxo-3,4-dihydro-2H-benzo[b][1,4]oxazin-6-yl)methyl)amino)acetamide] stands 1.26 to 10 µM.
For the compound `CCOC(=O)CN1CCN(Cc2ccc3c(c2)NC(=O)C(C)O3)CC1` (centres unmarked) [Compound 102, Ethyl 2-(4-((2-methyl-3-oxo-3,4-dihydro-2H-benzo[b][1,4]oxazin-6-yl)methyl)piperazin-1-yl)acetate], the Kd is 1.26 to 10 µM.
With `CC1Oc2ccc(S(=O)(=O)N3CCOCC3)cc2NC1=O` (centres unmarked) [Compound 118, 2-Methyl-6-(morpholinosulfonyl)-2H-benzo[b][1,4]oxazin-3(4H)-one], the Kd was 1.26 to 10 µM.
Under `CC1Oc2ccc(-c3cccc(C(=O)NCc4ccccc4)c3)cc2NC1=O` (centres unmarked) [Compound 147, N-Benzyl-3-(2-methyl-3-oxo-3,4-dihydro-2H-benzo[b][1,4]oxazin-6-yl)benzamide] stands greater than 10 µM.
With `O=C1COc2ccc(C(=O)NC3CCCCC3)cc2N1` [Compound 111, N-Cyclohexyl-3-oxo-3,4-dihydro-2H-benzo[b][1,4]oxazine-6-carboxamide], the Kd was no less than 100 µM.
Under `CC1Oc2ccc(CN(C)Cc3ccncc3)cc2NC1=O` (centres unmarked) [Compound 66, 2-Methyl-6-((methyl(pyridin-4-ylmethyl)amino)methyl)-2H-benzo[b][1,4]oxazin-3(4H)-one] stands no less than 100 µM; under `CC1Oc2ccc(CN3CCN(C4CCCCCC4)CC3)cc2NC1=O` (centres unmarked) [Compound 51, 6-((4-Cycloheptylpiperazin-1-yl)methyl)-2-methyl-2H-benzo[b][1,4]oxazin-3(4H)-one], 0.126 to 1 µM.
The value for `COCCNC(=O)CN1CCN(Cc2ccc3c(c2)NC(=O)C(C)O3)CC1` (centres unmarked) [Compound 177, N-(2-Methoxyethyl)-2-(4-((2-methyl-3-oxo-3,4-dihydro-2H-benzo[b][1,4]oxazin-6-yl)methyl)piperazin-1-yl)acetamide] was greater than 10 µM; that for `CC1Oc2ccc(-c3ccc(C(=O)NC4CCCCC4)cc3)cc2NC1=O` (centres unmarked) [Compound 153, N-Cyclohexyl-4-(2-methyl-3-oxo-3,4-dihydro-2H-benzo[b][1,4]oxazin-6-yl)benzamide] was greater than 10 µM; that for `O=C1COc2ccc(C(=O)Nc3ccccc3)cc2N1` [Compound 110, 3-Oxo-N-phenyl-3,4-dihydro-2H-benzo[b][1,4]oxazine-6-carboxamide] was no less than 100 µM.
For the compound `CC1Oc2ccc(CN(C)CC(=O)N3CCCCC3)cc2NC1=O` (centres unmarked) [Compound 138, 2-Methyl-6-((methyl(2-oxo-2-(piperidin-1-yl)ethyl)amino)methyl)-2H-benzo[b][1,4]oxazin-3(4H)-one], the Kd is 12.6 to 79.4 µM.
On to `CC1Oc2cc(CN3CCC(c4ccc(C(=O)O)cc4)CC3)ccc2NC1=O` (centres unmarked) [Compound 210, 4-(1-((2-Methyl-3-oxo-3,4-dihydro-2H-benzo[b][1,4]oxazin-7-yl)methyl)piperidin-4-yl)benzoic acid], for which the Kd is 12.6 to 79.4 µM.
The value for `CC1Oc2cc(CN3CCC(c4ccc(Cl)cc4)CC3)ccc2NC1=O` (centres unmarked) [Compound 200, 7-((4-(4-Chlorophenyl)piperidin-1-yl)methyl)-2-methyl-2H-benzo[b][1,4]oxazin-3(4H)-one] was 12.6 to 79.4 µM; that for `O=C1Nc2cc(CN3CC=C(c4ccccc4)CC3)ccc2OC1F` (centres unmarked) [Compound 100, 2-Fluoro-6-((4-phenyl-5,6-dihydropyridin-1(2H)-yl)methyl)-2H-benzo[b][1,4]oxazin-3(4H)-one] was 0.0126 to 0.1 µM.
Regarding `CCC1Oc2ccc(CN3CCN(c4ccncc4)CC3)cc2NC1=O` (centres unmarked) [Compound 195, 2-Ethyl-6-((4-(pyridin-4-yl)piperazin-1-yl)methyl)-2H-benzo[b][1,4]oxazin-3(4H)-one], the Kd is no less than 100 µM.
On to `CC1Oc2ccc(-c3cccc(C(=O)N4CCOCC4)c3)cc2NC1=O` (centres unmarked) [Compound 146, 2-Methyl-6-(3-(morpholine-4-carbonyl)phenyl)-2H-benzo[b][1,4]oxazin-3(4H)-one], for which the Kd is greater than 10 µM.
In the case of `CC1Oc2ccc(CN3CCN(c4ccc(C(=O)O)cc4)CC3)cc2NC1=O` (centres unmarked) [Compound 50, 4-(4-((2-Methyl-3-oxo-3,4-dihydro-2H-benzo[b][1,4]oxazin-6-yl)methyl)piperazin-1-yl)benzoic acid], the Kd is 0.0126 to 0.1 µM.
The value for `CC(C)NS(=O)(=O)c1cccc(-c2ccc3c(c2)NC(=O)C(C)O3)c1` (centres unmarked) [Compound 149, N-Isopropyl-3-(2-methyl-3-oxo-3,4-dihydro-2H-benzo[b][1,4]oxazin-6-yl)benzenesulfonamide] was greater than 10 µM.
As to `O=C1COc2ccc(C(=O)N3CCC(c4ccccc4)CC3)cc2N1` [Compound 105, 6-(4-phenylpiperidine-1-carbonyl)-2H-benzo[b][1,4]oxazin-3(4H)-one], the Kd was no less than 100 µM.
Under `CC1Oc2cc(CN3CC[C@H](c4ccccc4)C3)ccc2NC1=O` (stereo partly drawn) [Compound 93, 2-Methyl-7-(((R)-3-phenylpyrrolidin-1-yl)methyl)-2H-benzo[b][1,4]oxazin-3(4H)-one] stands 1.26 to 10 µM.
Under `CC1Oc2ccc(S(=O)(=O)N3CCC(c4ccccc4)CC3)cc2NC1=O` (centres unmarked) [Compound 121, 2-Methyl-6-(4-phenylpiperidin-1-ylsulfonyl)-2H-benzo[b][1,4]oxazin-3(4H)-one] stands greater than 1 µM; under `CC1Oc2ccc(CN3CCN(CC(=O)NS(C)(=O)=O)CC3)cc2NC1=O` (centres unmarked) [Compound 181, 2-(4-((2-Methyl-3-oxo-3,4-dihydro-2H-benzo[b][1,4]oxazin-6-yl)methyl)piperazin-1-yl)-N-(methylsulfonyl)acetamide], greater than 10 µM.
Turning to `CC1Oc2cc(CNc3ncc(-c4ccccc4)n3C)ccc2NC1=O` (centres unmarked) [Compound 94, 2-Methyl-7-((1-methyl-5-phenyl-1H-imidazol-2-ylamino)methyl)-2H-benzo[b][1,4]oxazin-3(4H)-one], the Kd is 1.26 to 10 µM.
As to `CC1Oc2ccc(CN3CCC(c4ccccc4N)CC3)cc2NC1=O` (centres unmarked) [Compound 211, 6-((4-(2-Aminophenyl)piperidin-1-yl)methyl)-2-methyl-2H-benzo[b][1,4]oxazin-3(4H)-one], the Kd was no less than 100 µM.
As to `CC1Oc2ccc(CN(C)Cc3ccccc3)cc2NC1=O` (centres unmarked) [Compound 64, 6-((Benzyl(methyl)amino)methyl)-2-methyl-2H-benzo[b][1,4]oxazin-3(4H)-one], the Kd was 12.6 to 79.4 µM.
The value for `CC1Oc2ccc(-c3cccc(C(N)=O)c3)cc2NC1=O` (centres unmarked) [Compound 142, 3-(2-Methyl-3-oxo-3,4-dihydro-2H-benzo[b][1,4]oxazin-6-yl)benzamide] was 1.26 to 10 µM; that for `CC1Oc2ccc(CN(C)Cc3ccc(F)cc3)cc2NC1=O` (centres unmarked) [Compound 73, 6-(((4-Fluorobenzyl)(methyl)amino)methyl)-2-methyl-2H-benzo[b][1,4]oxazin-3(4H)-one] was 1.26 to 10 µM.
